The source of these data is PubChem BioAssay AID330 (DTP/NCI, 2004).

The structures appear in SMILES notation. “And” between values parts separate entries of the source, which are not always exact repeats. Equal entries are not always repeated. Inconclusive results and toxic doses are left out.

The test relates to P388 leukemia ip, CD2F1 mice, survival T/C. Briefly: NCI In Vivo Anticancer Drug Screen. Data for tumor model P388 Leukemia (intraperitoneal) in CD2F1 (CDF1) mice. To be noted: endpoint: median survival time, higher = longer survival. In short, it runs like this: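 Mice carrying the transplanted tumor received test compound or vehicle. Survival was recorded in each group, and the value is the treated-group measurement divided by that of the vehicle-treated control group.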

Setting [1] is: dose: 50.0 mg/kg/injection, schedule: Q01DX005 (ip), vehicle: Klucel (hydroxypropylcellulose) (HPC).
[2] abbreviates: dose: 100.0 mg/kg/injection, schedule: Q01DX005 (ip), vehicle: Klucel (hydroxypropylcellulose) (HPC).
[3] abbreviates: dose: 200.0 mg/kg/injection, schedule: Q01DX005 (ip), vehicle: Klucel (hydroxypropylcellulose) (HPC).
Where [4] appears, read: dose: 100.0 mg/kg/injection, schedule: Q01DX009 (ip), vehicle: saline with Tween-80.
Setting [5] is: dose: 200.0 mg/kg/injection, schedule: Q01DX009 (ip), vehicle: saline with Tween-80.
The mark [6] stands for this setting: dose: 400.0 mg/kg/injection, schedule: Q01DX009 (ip), vehicle: saline with Tween-80.
Where [7] appears, read: dose: 12.5 mg/kg/injection, schedule: Q01DX005 (ip), vehicle: saline with Tween-80.
[8] abbreviates: dose: 50.0 mg/kg/injection, schedule: Q01DX005 (ip), vehicle: saline with Tween-80.
The mark [9] stands for this setting: dose: 100.0 mg/kg/injection, schedule: Q01DX005 (ip), vehicle: saline with Tween-80.
Where [10] appears, read: dose: 50.0 mg/kg/injection, schedule: Q01DX009 (ip), vehicle: saline.
The mark [11] stands for this setting: dose: 100.0 mg/kg/injection, schedule: Q01DX009 (ip), vehicle: saline.
Where [12] appears, read: dose: 200.0 mg/kg/injection, schedule: Q01DX009 (ip), vehicle: saline.
Setting [13] is: dose: 25.0 mg/kg/injection, schedule: Q01DX009 (ip), vehicle: saline with Tween-80.
Where [14] appears, read: dose: 50.0 mg/kg/injection, schedule: Q01DX009 (ip), vehicle: saline with Tween-80.
The mark [15] stands for this setting: dose: 200.0 mg/kg/injection, schedule: Q01DX005 (ip), vehicle: saline with Tween-80.
Where [16] appears, read: dose: 100.0 mg/kg/injection, schedule: Q01DX009 (ip), vehicle: Klucel (hydroxypropylcellulose) (HPC).
Where [17] appears, read: dose: 200.0 mg/kg/injection, schedule: Q01DX009 (ip), vehicle: Klucel (hydroxypropylcellulose) (HPC).

As to `O=C1OC(c2ccccc2)=N/C1=C\c1ccccc1O`, the T/C by setting is: under setting [1], 101 % of control; under setting [2], 101 % of control; under setting [3], 93 % of control.
Turning to `CCCCOC(OCCCC)C(OCCCC)OCCCC`, the T/C by setting is: under setting [4], 105 % of control; (dose: 100.0 mg/kg/injection, schedule: Q04DX003 (ip), vehicle: saline sonified) 95 % of control; under setting [5], 110 % of control; (dose: 200.0 mg/kg/injection, schedule: Q04DX003 (ip), vehicle: saline sonified) 100 % of control; under setting [6], 105 % of control; (dose: 400.0 mg/kg/injection, schedule: Q04DX003 (ip), vehicle: saline sonified) 104 % of control.
Turning to `O=C(NCCCl)OCC1=C(COC(=O)NCCCl)C(=O)c2ccccc2C1=O`, the T/C was 100 % of control and 102 % of control under setting [7]; 101 % of control and 106 % of control (dose: 25.0 mg/kg/injection, schedule: Q01DX005 (ip), vehicle: saline with Tween-80); 110 % of control under setting [8]; 113 % of control under setting [9].
`O=C1CSC(c2ccccc2F)N1c1nccs1` (centres undefined): the T/C runs as follows: under setting [1], 100 % of control; under setting [2], 103 % of control; under setting [3], 109 % of control.
With `N#Cc1ccc(CC(O)(c2ccccc2)c2ccccc2)cc1`, the T/C is 99 % of control under setting [10]; 101 % of control under setting [11]; 95 % of control under setting [12]; 87 % of control (dose: 400.0 mg/kg/injection, schedule: Q01DX009 (ip), vehicle: saline).
For the compound `CC(C)Cc1nccs1`, the T/C is 105 % of control under setting [13]; 105 % of control and 110 % of control under setting [14]; 106 % of control and 117 % of control under setting [4]; 118 % of control under setting [5].
Take `CCCCC/C(=C\c1ccccc1)C1OCC(COCC)O1` (centres undefined): the T/C by setting is: (dose: 100.0 mg/kg/injection, schedule: Q01DX009 (ip), vehicle: saline + Tween-80 + alcohol) 119 % of control; (dose: 200.0 mg/kg/injection, schedule: Q01DX009 (ip), vehicle: saline + Tween-80 + alcohol) 118 % of control.
Regarding `C/C(=N\NC(=S)N1CC2CCC(CC2)C1)c1cccc(C)n1`, the T/C was 102 % of control and 114 % of control (dose: 6.25 mg/kg/injection, schedule: Q01DX005 (ip), vehicle: saline with Tween-80); 112 % of control under setting [7].
With `O=C(Nc1ccc(C2=NCCN2)cc1)c1ccc(C(=O)Nc2ccc(C3=NCCN3)cc2)c(F)c1`, the T/C is 109 % of control (dose: 12.5 mg/kg/injection, schedule: Q04DX003 (ip), vehicle: saline with Tween-80); 122 % of control (dose: 25.0 mg/kg/injection, schedule: Q04DX003 (ip), vehicle: saline with Tween-80); 181 % of control under setting [4]; 250 % of control under setting [5]; 200 % of control (dose: 264.0 mg/kg/injection, schedule: Q04DX003 (ip), vehicle: saline with Tween-80); 272 % of control under setting [6]. Further, the T/C is 245 % of control (dose: 400.0 mg/kg/injection, schedule: Q04DX003 (ip), vehicle: saline with Tween-80) and 259 % of control (dose: 600.0 mg/kg/injection, schedule: Q04DX003 (ip), vehicle: saline with Tween-80).
For `C[N+]1=C(c2ccc(Br)cc2)OCC1(C)C`, the T/C is, setting by setting: (dose: 25.0 mg/kg/injection, schedule: Q01DX009 (ip), vehicle: other) 104 % of control; (dose: 50.0 mg/kg/injection, schedule: Q01DX009 (ip), vehicle: other) 101 % of control; (dose: 100.0 mg/kg/injection, schedule: Q01DX009 (ip), vehicle: other) 97 % of control; (dose: 200.0 mg/kg/injection, schedule: Q01DX009 (ip), vehicle: other) 101 % of control; (dose: 400.0 mg/kg/injection, schedule: Q01DX009 (ip), vehicle: other) 101 % of control.
Consider `NC(Cc1ccc2c(c1)OCO2)c1ccc2c(c1)OCO2` (centres undefined), for which the T/C was 101 % of control under setting [1], 99 % of control under setting [2] and 101 % of control under setting [3].
For the compound `Cc1cc[n+]([O-])cc1`, the T/C runs as follows: under setting [10], 105 % of control; under setting [11], 106 % of control; under setting [12], 97 % of control.
On to `CCOC(=O)/C(=C(/C)N=Cc1ccccc1[N+](=O)[O-])C(NN=O)c1ccccc1[N+](=O)[O-]` (centres undefined), for which the T/C is, setting by setting: (dose: 25.0 mg/kg/injection, schedule: Q01DX005 (ip), vehicle: Klucel (hydroxypropylcellulose) (HPC)) 97 % of control; under setting [1], 93 % of control; under setting [2], 88 % of control and 90 % of control.
As to `CC(=NCCN=C(C)c1ccc(Br)cc1)c1ccc(Br)cc1`, the T/C by setting is: under setting [14], 91 % of control; under setting [4], 92 % of control; under setting [5], 91 % of control.
Turning to `CC1(C)OC2C(CO)OC(n3c(Br)nc4c(N)ncnc43)C2O1` (centres undefined), the T/C is, setting by setting: under setting [8], 100 % of control; under setting [9], 103 % of control; under setting [15], 100 % of control.
Turning to `O=[N+]([O-])CC(c1ccccc1)C(c1ccccc1)[N+](=O)[O-]` (centres undefined), the T/C runs as follows: under setting [8], 90 % of control; under setting [9], 93 % of control; under setting [15], 112 % of control.
On to `CN1C2CCC1C(C(=O)O)C(O)C2` (centres undefined), for which the T/C runs as follows: (dose: 100.0 mg/kg/injection, schedule: Q04DX002 (ip), vehicle: saline with Tween-80) 101 % of control; (dose: 200.0 mg/kg/injection, schedule: Q04DX002 (ip), vehicle: saline with Tween-80) 96 % of control; (dose: 400.0 mg/kg/injection, schedule: Q04DX002 (ip), vehicle: saline with Tween-80) 92 % of control.
For `O=S(=O)(NCCSSCCNS(=O)(=O)c1ccc2ccccc2c1)c1ccc2ccccc2c1`, the T/C (dose: 50.0 mg/kg/injection, schedule: Q01DX009 (ip), vehicle: Klucel (hydroxypropylcellulose) (HPC)) was 91 % of control; the T/C under setting [16] is 92 % of control; the T/C under setting [17] was 88 % of control.
`CCN(CC)CCOC(=O)C(C)Oc1c2ccoc2c(OC)c2oc(C)cc(=O)c12` (centres undefined): the T/C runs as follows: (dose: 50.0 mg/kg/injection, schedule: Q01DX005 (ip), vehicle: saline) 102 % of control; (dose: 100.0 mg/kg/injection, schedule: Q01DX005 (ip), vehicle: saline) 106 % of control; (dose: 200.0 mg/kg/injection, schedule: Q01DX005 (ip), vehicle: saline) 101 % of control.
Take `Cc1ccc(S(=O)(=O)N/N=C2/C=CC3(CCCC3)CC2)cc1`: the T/C was 88 % of control (dose: 50.0 mg/kg/injection, schedule: Q01DX001 (ip), vehicle: Klucel (hydroxypropylcellulose) (HPC)); 91 % of control (dose: 100.0 mg/kg/injection, schedule: Q01DX001 (ip), vehicle: Klucel (hydroxypropylcellulose) (HPC)); 88 % of control and 90 % of control (dose: 200.0 mg/kg/injection, schedule: Q01DX001 (ip), vehicle: Klucel (hydroxypropylcellulose) (HPC)); 89 % of control (dose: 400.0 mg/kg/injection, schedule: Q01DX001 (ip), vehicle: Klucel (hydroxypropylcellulose) (HPC)).
Regarding `S=C1SCN(C2CCCCC2)CN1C1CCCCC1`, the T/C runs as follows: under setting [16], 100 % of control; under setting [17], 105 % of control; (dose: 400.0 mg/kg/injection, schedule: Q01DX009 (ip), vehicle: Klucel (hydroxypropylcellulose) (HPC)) 107 % of control.
Turning to `O=C(SCN1CCCCC1)c1ccccc1`, the T/C by setting is: under setting [13], 100 % of control; under setting [14], 113 % of control; under setting [4], 109 % of control.
For the compound `O=[N+]([O-])c1ccc(N2c3ccccc3SC23CCCC3)c([N+](=O)[O-])c1`, the T/C by setting is: under setting [8], 100 % of control; under setting [9], 100 % of control; under setting [15], 99 % of control.
Take `CC(C)(C)NC1=NCCNC(c2ccccc2)=C1`: the T/C by setting is: (dose: 6.25 mg/kg/injection, schedule: Q01DX005 (ip), vehicle: saline) 98 % of control; (dose: 12.5 mg/kg/injection, schedule: Q01DX005 (ip), vehicle: saline) 100 % of control; (dose: 25.0 mg/kg/injection, schedule: Q01DX005 (ip), vehicle: saline) 92 % of control.
